Earlier results as cited in patent US12295926B1, “Modified release gamma-hydroxybutyrate formulations having improved pharmacokinetics” (Flamel Ireland Limited, priority 2022, dated 2025).
Where two headings read alike, the source gives them in different places.

Columns and labels:
rat [1] = conditions: 2-year
mouse = conditions: 2-year
rat [2] = conditions: in vivo
CYP2C19 = CYP2C19 (Homo sapiens, UniProt P33261); conditions: up to 3 mM (378 mcg/mL)
male and female rats = conditions: 150, 350, or 1,000 mg/kg/day
CYP1A2 = molecular target: T1, CYP1A2 (Homo sapiens, UniProt P05177); conditions: up to 3 mM (378 mcg/mL)
T1 sequence (P05177 1-516): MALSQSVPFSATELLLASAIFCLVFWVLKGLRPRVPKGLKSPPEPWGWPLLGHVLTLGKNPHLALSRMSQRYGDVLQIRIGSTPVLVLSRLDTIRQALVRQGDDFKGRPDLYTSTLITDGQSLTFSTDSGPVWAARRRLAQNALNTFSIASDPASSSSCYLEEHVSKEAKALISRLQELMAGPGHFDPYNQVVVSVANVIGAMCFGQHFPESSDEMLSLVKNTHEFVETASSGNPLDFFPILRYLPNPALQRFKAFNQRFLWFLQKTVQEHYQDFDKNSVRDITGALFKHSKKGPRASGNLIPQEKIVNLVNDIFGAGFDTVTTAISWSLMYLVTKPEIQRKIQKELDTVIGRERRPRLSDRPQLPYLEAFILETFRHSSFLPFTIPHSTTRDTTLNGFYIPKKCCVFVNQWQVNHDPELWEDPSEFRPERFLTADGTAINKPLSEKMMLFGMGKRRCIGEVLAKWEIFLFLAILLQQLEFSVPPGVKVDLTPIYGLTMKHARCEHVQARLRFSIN

rats [3] = tested on: rats
pregnant rats = conditions: 150, 350, or 1,000 mg/kg/day
CYP2D6 = CYP2D6 (Homo sapiens, UniProt P10635); conditions: up to 3 mM (378 mcg/mL)
Sequence of CYP2D6 (P10635 whole entry): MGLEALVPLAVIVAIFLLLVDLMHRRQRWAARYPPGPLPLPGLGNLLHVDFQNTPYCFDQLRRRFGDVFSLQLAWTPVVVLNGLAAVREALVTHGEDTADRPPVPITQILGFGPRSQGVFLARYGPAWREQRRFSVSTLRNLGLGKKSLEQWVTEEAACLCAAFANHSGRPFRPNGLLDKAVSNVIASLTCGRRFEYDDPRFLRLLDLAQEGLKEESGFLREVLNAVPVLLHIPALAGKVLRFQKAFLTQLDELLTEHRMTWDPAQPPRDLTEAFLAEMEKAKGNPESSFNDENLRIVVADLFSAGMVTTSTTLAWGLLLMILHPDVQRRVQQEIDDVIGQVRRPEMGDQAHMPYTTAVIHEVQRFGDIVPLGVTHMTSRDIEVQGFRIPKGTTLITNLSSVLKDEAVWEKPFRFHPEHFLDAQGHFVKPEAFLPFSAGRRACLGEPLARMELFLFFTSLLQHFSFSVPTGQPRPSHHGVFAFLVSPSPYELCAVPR

[4] = 4.5 g oral
rats [5] = conditions: 0, 100, 300, or 900 mg/kg/day
CYP2E1 = CYP2E1 (Homo sapiens, UniProt P05181); conditions: up to 3 mM (378 mcg/mL)
Sequence of CYP2E1 (P05181 whole entry): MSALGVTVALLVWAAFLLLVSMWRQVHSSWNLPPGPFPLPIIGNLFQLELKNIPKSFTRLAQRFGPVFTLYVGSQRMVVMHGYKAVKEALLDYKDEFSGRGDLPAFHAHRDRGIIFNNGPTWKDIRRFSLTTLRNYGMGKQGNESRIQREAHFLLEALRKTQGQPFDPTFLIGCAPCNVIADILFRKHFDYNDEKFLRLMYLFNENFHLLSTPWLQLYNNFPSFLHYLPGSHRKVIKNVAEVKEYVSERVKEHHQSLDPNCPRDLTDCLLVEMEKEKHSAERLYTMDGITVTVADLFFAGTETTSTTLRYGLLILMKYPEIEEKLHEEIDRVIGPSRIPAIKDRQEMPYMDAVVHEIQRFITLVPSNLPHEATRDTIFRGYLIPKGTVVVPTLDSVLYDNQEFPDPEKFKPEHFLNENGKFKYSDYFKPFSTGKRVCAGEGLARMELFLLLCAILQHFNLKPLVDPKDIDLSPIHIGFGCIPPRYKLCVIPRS

plasma proteins = conditions: 3 mcg/mL to 300 mcg/mL
[6] = 6 g per day with ibuprofen 800 mg four times per day
CYP3A = conditions: up to 3 mM (378 mcg/mL)
[7] = 6 g per day with diclofenac 50 mg twice per day
pregnant rabbits = conditions: 300, 600, or 1,200 mg/kg/day
CYP2C9 = CYP2C9 (Homo sapiens, UniProt P11712); conditions: up to 3 mM (378 mcg/mL)
Sequence of CYP2C9 (P11712 whole entry): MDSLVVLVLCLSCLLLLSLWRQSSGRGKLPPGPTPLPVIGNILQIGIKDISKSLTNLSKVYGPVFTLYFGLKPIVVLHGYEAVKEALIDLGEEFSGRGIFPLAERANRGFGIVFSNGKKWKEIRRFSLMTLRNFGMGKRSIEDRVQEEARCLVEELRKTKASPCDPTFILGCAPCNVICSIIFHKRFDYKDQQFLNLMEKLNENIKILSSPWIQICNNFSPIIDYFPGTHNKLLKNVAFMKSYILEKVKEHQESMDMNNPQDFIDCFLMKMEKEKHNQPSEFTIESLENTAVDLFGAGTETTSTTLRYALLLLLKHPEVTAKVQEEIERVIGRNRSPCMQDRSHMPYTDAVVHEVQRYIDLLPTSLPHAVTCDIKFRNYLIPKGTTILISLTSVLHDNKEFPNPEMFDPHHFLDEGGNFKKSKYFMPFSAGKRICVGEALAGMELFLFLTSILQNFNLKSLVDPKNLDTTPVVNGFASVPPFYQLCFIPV

rats [8] = conditions: highest dose tested (1,000 mg/kg/day)
[9] = not given; remark: listed apart in the source

Sequence of CYP2C19 (P33261 whole entry): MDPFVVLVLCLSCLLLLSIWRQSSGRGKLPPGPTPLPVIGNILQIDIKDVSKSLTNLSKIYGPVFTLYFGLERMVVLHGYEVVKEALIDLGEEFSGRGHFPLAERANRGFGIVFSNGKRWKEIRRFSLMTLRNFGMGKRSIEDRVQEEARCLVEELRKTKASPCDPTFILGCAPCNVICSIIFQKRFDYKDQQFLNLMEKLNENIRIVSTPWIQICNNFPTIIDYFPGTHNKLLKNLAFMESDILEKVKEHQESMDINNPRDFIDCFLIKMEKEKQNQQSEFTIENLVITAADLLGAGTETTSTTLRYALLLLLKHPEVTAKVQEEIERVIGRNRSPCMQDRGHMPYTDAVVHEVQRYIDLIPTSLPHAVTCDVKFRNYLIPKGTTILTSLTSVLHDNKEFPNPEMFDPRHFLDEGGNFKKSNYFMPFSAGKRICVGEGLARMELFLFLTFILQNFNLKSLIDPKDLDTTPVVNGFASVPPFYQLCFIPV

## O=C1CCCO1 [gamma-butyrolactone]
Rat [1]
  Carcinogenic activity: no clear evidence of carcinogenic activity
mouse
  Carcinogenic activity: no clear evidence of carcinogenic activity

## O=C([O-])CCCO.[Na+] [sodium oxybate, sodium 4-hydroxybutanoate]
Rat [2]
  Micronucleus: negative
CYP2C19
  Inhibition of CYP2C19: does not significantly inhibit
25 mg/kg oral
  AUC in cirrhotic patients vs normal hepatic function: double
Child's Class A
  Apparent oral clearance: 4.5 mL/min/kg
Child's Class C
  Apparent oral clearance: 4.1 mL/min/kg
Healthy adults
  Apparent oral clearance: 9.1 mL/min/kg
Male and female rats
  Effects on fertility: no adverse effects on fertility
Mammalian cells
  Chromosomal aberration: negative
CYP1A2
  Inhibition of CYP1A2: does not significantly inhibit
Rats [3]; highest dose tested
  Plasma exposure (AUC) relative to humans at the MRHD: 2 times
Rats [3]; up to 1,000 mg/kg/day for 83 (males) or 104 (females) weeks
  Tumors: no increase in tumors
Pregnant rats
  Developmental toxicity: no clear evidence of developmental toxicity
CYP2D6
  Inhibition of CYP2D6: does not significantly inhibit
[4]
  Gender differences in pharmacokinetics of GHB: no gender differences
Rats [5]
  Mortality in juvenile rats: mortality was observed at the two highest doses tested
CYP2E1
  Inhibition of CYP2E1: does not significantly inhibit
Plasma proteins
  Bound to plasma proteins: less than 1%
[6]
  Systemic exposure to GHB on co-administration: comparable systemic exposure to GHB
CYP3A
  Inhibition of CYP3A: does not significantly inhibit
[7]
  Systemic exposure to GHB on co-administration: no significant differences in systemic exposure to GHB
Pregnant rabbits
  Developmental toxicity: no clear evidence of developmental toxicity
CYP2C9
  Inhibition of CYP2C9: does not significantly inhibit
Rats [8]
  Pre- and post-natal effects: increased stillbirths and decreased offspring postnatal viability and body weight gain
[9]; in vivo
  Apparent volume of distribution: 0.19 to 0.384 L/kg
  Elimination half-life: 30 to 60 min
[9]; within 6 to 8 hours after dosing
  Unchanged drug in human urine: less than 5%
bacteria
  Bacterial gene mutation: negative
